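Five compound concentrations were applied to cells in 96-well plates for 48 hours; endpoints were derived by simple linear interpolation of the resulting dose-response curve. The concentration for 50% growth inhibition is given as GI50. TGI: concentration producing complete growth inhibition.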 Where a SMILES comes first, the peptide text is derived from it. [ ]: non-standard residue; d: D form. The star is where a group is joined. NMeF = CN[C@@H](Cc1ccccc1)C(=O)O; NMeV = CN[C@H](C(=O)O)C(C)C; Boc = CC(C)(C)OC(=O)*; OBn = c1ccc(CO*)cc1

These results are taken from PubChem BioAssay (NCI).

Assay in all cases: DTP human tumour cell line panel, 48 h
Assay [1] concerns M14 melanoma.
In assay [2] the test system is SF-295 CNS.
Assay [3] concerns HT29 colon.
Assay [4] has as its system HCT-15 colon.
The test system of assay [5] is TK-10 renal.
Assay [6] has as its system SNB-75 CNS.
The subject of assay [7] is HCC-2998 colon.
Assay [8] has as its system BT-549 breast.
Assay [9] has as its system NCI-H522 lung.
For assay [10], the system named is OVCAR-3 ovarian.

On to `COc1ccc(-c2nn(-c3cccc(NC(=O)c4cccc(C(F)(F)F)c4)c3)cc2-c2ccncc2)cc1Cl`, for which the GI50 in assay [1] is 2.23 µM; in assay [2], 2.37 µM; in assay [3], 2.92 µM; in assay [4], 2 µM; in assay [5] it was 6.77 µM; in [6], 1.17 µM. Besides, the GI50 in assay [7] is 3.29 µM; in assay [8], 3.14 µM; in assay [9], 0.475 µM. Also, the total growth inhibition concentration (TGI) in [1] was 25.3 µM; in [2], 9.91 µM; in [3], 27.7 µM; in assay [4], greater than 100 µM; in assay [5], greater than 100 µM; in assay [6], 4.07 µM. Also, the concentration for total growth inhibition (TGI) in [7] is 17 µM; in assay [8], greater than 100 µM; in [9], 3.55 µM.

Take `N#CCCSC(=S)C1CCCC1=N` (centres undefined): the concentration for total growth inhibition (TGI) in assay [1] was greater than 100 µM; in assay [2], greater than 100 µM; in assay [3], greater than 100 µM; in assay [4], greater than 100 µM; in assay [5], greater than 100 µM; in [6], 94.4 µM. Moreover, the TGI in assay [10], in assay [8] and in assay [9] was greater than 100 µM each time.

Turning to `Nc1ccc(-c2nc3ccccc3o2)cc1S`, the GI50 in [1] was 15.5 µM; in assay [2] it was 13.6 µM; in assay [4], 16.5 µM; in [5], 11.6 µM; in assay [10], 15.8 µM; in assay [7], 14.4 µM. The GI50 in assay [8] is 23.6 µM; in [9], 35.5 µM. Moreover, the TGI worked out at 36.7 µM in assay [1]; 28.8 µM in assay [2]; 30.3 µM in [4]; 29 µM in assay [5]; 31 µM in assay [10]; 32.2 µM in [7]. In addition, the values for the TGI in assay [8] and in [9] were 49.8 µM and greater than 100 µM, respectively.

Turning to `Cc1cc2cc3cc(C)c(N)cc3[n+](C)c2cc1N`, the GI50 in [1] is 1.8 µM; in assay [2] it was 1.56 µM; in assay [3], 1.41 µM; in assay [4] it was 2.65 µM; in [5], 4.06 µM; in assay [6] it was 1.75 µM. Further, the GI50 is 1.55 µM in [10], 1.45 µM in assay [7], 2.34 µM in assay [8] and 3.24 µM in [9]. Also, the TGI in [1] is 4.82 µM; in [2] it was 11.4 µM; in [3] it was 6 µM; in [4], 11.7 µM; in assay [5], 12.7 µM; in assay [6], 14.4 µM. Moreover, the TGI worked out at 5.66 µM in assay [10], 4.26 µM in [7], 9.31 µM in assay [8] and 9.31 µM in assay [9].

Turning to `CNC(=O)NC(CCCCNC(=O)OCc1ccccc1)C(=O)OCc1ccccc1` (centres undefined), the total growth inhibition concentration (TGI) in assay [1] is 43 µM; in assay [2], greater than 100 µM; in assay [3] it was greater than 100 µM; in [4], greater than 100 µM; in assay [5] it was 99 µM; in assay [6], 43.9 µM. In addition, the TGI was 57.9 µM in assay [10], greater than 72.9 µM in [7], greater than 100 µM in assay [8] and 21.4 µM in assay [9].

Consider H-HIIKKIRTWYRKAWHVLGKV-NH2, for which the GI50 is 4.17 µM in [1]; 4.8 µM in assay [2]; 14.8 µM in [3]; 4.24 µM in assay [4]; 3.24 µM in assay [5]; 11.9 µM in [6]. The GI50 in assay [10] is 10.4 µM; in assay [7], 3.88 µM; in assay [8] it was 12.8 µM; in assay [9], 11.1 µM. For the same compound, the TGI in assay [1] is 22.8 µM; in assay [2] it was 22.8 µM; in assay [3] it was greater than 100 µM; in assay [4] it was 64.7 µM; in assay [5], 15.6 µM; in assay [6], 30.4 µM. Moreover, the total growth inhibition concentration (TGI) in assay [10] stood at 39.3 µM; in [7], 31.2 µM; in [8], 32.1 µM; in [9], 63.3 µM.

On to `O=C(NCCNc1nccc(-c2c(-c3ccc(F)cc3)nc3sccn23)n1)c1ccccc1`, for which the GI50 was 7.97 µM in assay [1]; 6.97 µM in assay [2]; 4.31 µM in [3]; 3.81 µM in [4]; 15.8 µM in assay [5]; 7.27 µM in [6]. Besides, the GI50 was 16.2 µM in assay [10], 17.4 µM in assay [7], 14.3 µM in [8] and 11.1 µM in assay [9]. The concentration for total growth inhibition (TGI) in [1] was 22.3 µM; in [2], 27.5 µM; in assay [3] it was greater than 100 µM; in [4] it was 39.3 µM; in assay [5], 48.7 µM; in assay [6], 62.5 µM. The TGI in [10] is greater than 100 µM; in [7] it was 40.1 µM; in [8], 34 µM; in assay [9], 27.4 µM.

For the compound `NC1=CC(=O)c2nc3ccccc3c3ccnc1c23`, the 50% growth inhibitory concentration (GI50) was 0.342 µM in [1]; 0.19 µM in assay [2]; 3.52 µM in assay [3]; 0.622 µM in assay [4]; 6.54 µM in assay [5]; 0.552 µM in assay [6]. Further, the GI50 in [10] is 3.6 µM; in assay [7], 0.497 µM; in [8], 6.9 µM; in assay [9] it was 2.48 µM. The TGI is 26.7 µM in assay [1]; greater than 39.5 µM in [2]; 21.2 µM in assay [3]; greater than 100 µM in assay [4]; 42.5 µM in [5]; 23.5 µM in assay [6]. Also, the concentration for total growth inhibition (TGI) in assay [10] was greater than 51.9 µM; in [7] it was 11.5 µM; in assay [8], 27.9 µM; in assay [9], 17.3 µM.

`Cc1c(-c2nnc(-c3ccc(F)cc3)o2)nnn1-c1ccnc2c(C(F)(F)F)cccc12`: the GI50 in assay [2] was 29.6 µM; in assay [3], 34.4 µM; in [4], greater than 100 µM; in assay [5], 32.2 µM; in [6], 19.5 µM; in assay [10] it was 28.7 µM. The GI50 in assay [7] is greater than 100 µM; in assay [8], 21.6 µM; in assay [9] it was 84.7 µM. Besides, the TGI is greater than 100 µM in assay [2]; greater than 100 µM in assay [3]; greater than 100 µM in assay [4]; 98.8 µM in assay [5]; 61.2 µM in assay [6]; greater than 100 µM in [10]. Further, the TGI was greater than 100 µM in [7], 58.1 µM in assay [8] and greater than 100 µM in [9].

Regarding `COc1nc(N)nc2c1ncn2[C@@H]1O[C@H](CO)[C@@H](O)[C@@H]1O`, the GI50 in assay [1], in assay [2], in assay [3], in assay [4], in assay [5] and in [6] was greater than 100 µM each time. Further, the GI50 in assay [10], in assay [7], in [8] and in assay [9] was greater than 100 µM in each case. Also, the TGI in [1], in assay [2], in assay [3], in assay [4], in assay [5] and in assay [6] was greater than 100 µM throughout. The TGI in [10], in assay [7], in assay [8] and in assay [9] was greater than 100 µM throughout.

In the case of `CC(C)[C@@H](C(=O)N1CCC[C@H]1C(=O)OCc1ccccc1)N(C)C(=O)[C@H](C(C)C)N(C)C(=O)[C@H](Cc1ccccc1)N(C)C(=O)[C@H](NC(=O)OC(C)(C)C)C(C)C` (Boc-[dV][NMeF][NMeV][NMeV]P-OBn), the GI50 was 41.7 µM in assay [1]; greater than 100 µM in assay [2]; greater than 100 µM in assay [6]; greater than 100 µM in assay [10]; 68.9 µM in assay [7]. For the same compound, the total growth inhibition concentration (TGI) in [1], in assay [2], in [3], in assay [4], in assay [5] and in assay [6] was greater than 100 µM each time. The concentration for total growth inhibition (TGI) in assay [10] is greater than 100 µM; in assay [7] it was greater than 100 µM; in [8], greater than 50 µM; in [9], greater than 50 µM.

As for `Cc1cc(=O)oc2c(OS(C)(=O)=O)c(OS(C)(=O)=O)ccc12`, the TGI in assay [1], in [2], in assay [3], in [4], in assay [5] and in assay [10] was greater than 100 µM in each case. The TGI in assay [7], in assay [8] and in [9] was greater than 100 µM throughout.

Consider `CSC1=Nc2c(c(C)c(C)n2COC(CO)CO)C2=NC(=O)CC(C)N12` (centres undefined), for which the GI50 in assay [2] is greater than 100 µM; in assay [3] it was greater than 100 µM; in [4] it was greater than 100 µM; in assay [5], greater than 100 µM; in assay [6] it was 30.7 µM; in [10] it was greater than 100 µM. The GI50 in assay [7], in [8] and in assay [9] was greater than 100 µM throughout. For the same compound, the TGI in [2], in assay [3], in assay [4], in [5], in [6] and in assay [10] was greater than 100 µM throughout. Besides, the concentration for total growth inhibition (TGI) in assay [7], in [8] and in assay [9] was greater than 100 µM in each case.

Take `Cc1sc(NC2=NC(=O)/C(=C\c3ccccc3)S2)nc1-c1nc(NC2=NC(=O)/C(=C\c3ccccc3)S2)sc1C`: the GI50 in [1] is 9.51 µM; in [2] it was 13.2 µM; in [3], 23.3 µM; in assay [4] it was 13 µM; in assay [5], 7.19 µM; in assay [10], 9.84 µM. Also, the values for the GI50 in assay [7], in assay [8] and in assay [9] were 14.2 µM, 18.4 µM and 22.3 µM, respectively. The TGI is 23.6 µM in assay [1]; greater than 40.7 µM in [2]; greater than 50 µM in assay [3]; greater than 39.6 µM in assay [4]; 22.7 µM in assay [5]; 29.1 µM in assay [10]. The TGI in assay [7] is 39.9 µM; in [8], greater than 50 µM; in assay [9] it was greater than 50 µM.

For `O=C(O)c1ccccc1-c1ccccc1C(=O)Nc1ccc2c(c1)[nH]c(=O)c1ccccc12`, the concentration for total growth inhibition (TGI) in assay [1], in assay [2], in [3], in [4], in [5] and in [6] was greater than 100 µM each time. The concentration for total growth inhibition (TGI) in [10], in assay [8] and in assay [9] was greater than 100 µM each time.

As to `Cc1ccc(NC2=C(Cl)C(=O)N(Cc3ccccc3)C2=O)cc1Cl`, the GI50 in assay [1] is 11 µM; in [2], 7.66 µM; in assay [3] it was 14.3 µM; in [4] it was 5.4 µM; in [5] it was 9.13 µM; in assay [10] it was 3.82 µM. The GI50 in assay [8] was 1.68 µM; in assay [9] it was 2.97 µM. Besides, the TGI in assay [1] was found to be 22.9 µM; in assay [2], 22.5 µM; in assay [3] it was 36.6 µM; in assay [4] it was 21.4 µM; in [5], 24.3 µM; in assay [10], 15 µM. Further, the figures for the TGI in assay [8] and in [9] were 14.9 µM and 15.4 µM, respectively.

Consider `O=C(Cc1ccccc1)NC(c1ccc(Cl)cc1)c1c(O)ccc2ccccc12` (centres undefined), for which the GI50 was 2.35 µM in assay [2]; 3.74 µM in [3]; 2.83 µM in [4]; 4.17 µM in assay [5]; 2.22 µM in assay [6]; 2.97 µM in [10]. The GI50 in assay [7] was 3.2 µM; in assay [8] it was 3.8 µM; in [9], 2.82 µM. For the same compound, the TGI in assay [2] is 7.5 µM; in assay [3], 11.3 µM; in assay [4] it was 10.5 µM; in assay [5], 13.2 µM; in assay [6], 12.4 µM; in assay [10] it was 7.64 µM. Moreover, the TGI came to 12.2 µM in assay [7], 12.8 µM in [8] and 7.57 µM in [9].
